One series concerns the target T1, GSK3β (Homo sapiens, UniProt P49841).
T1 construct: purchased New England Biolabs
The experiment in a line: GSK3β in vitro kinase assay. The format is biochemical. As to conditions: recombinant human GSK3β, 100 μM ATP. Summed up: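 Radiometric filter-binding assay with GSK3β (1.5 units), 200 μM CREB phosphopeptide, 100 μM ATP plus [γ-32P]ATP, in 20 mM Tris HCl pH7.5, 5 mM DTT, 15 mM MgCl2, 2% DMSO; 30 min at 30° C, stopped with phosphoric acid. 32P incorporation counted by scintillation; IC50 from 10-point titration.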

For a further series, the target named is T2, GSK3α (Homo sapiens, UniProt P49840).
T2 construct: purchased Upstate
The experiment in a line: GSK3α in vitro kinase assay. As to conditions: recombinant human GSK3α, 100 μM ATP. The format is biochemical. The procedure: Both isoforms of GSK3 (α and β) are involved in the regulation of glycogen synthase activity—key enzyme in the glycogen metabolism. The inhibitory potency of example compounds was determined using in vitro kinase assays with recombinant human GSK3-α and -β; the IC50 values determined are presented in Table 9.
A 10-point titration was set up to determine the IC50 values of selected example compounds against GSK3β. Assays were performed using 96-well microtiter plates with a final volume of 25 μL per well. Each assay contained 1.5 units of GSK3β(New England Biolabs), 200 μM CREB phosphopeptide ([…]pSYR, Alta Biosciences), 20 mM Tris HCl pH7.5, 5 mM DTT, 15 mM MgCl2 supplemented with 100 μM ATP and 0.5 μCi of [γ-^32P] ATP plus or minus inhibitor in 2% DMSO. Assays were carried out for 30 minutes at 30° C. before stopping the reaction by the addition of an equal volume of 75 mM aqueous phosphoric acid. Samples were then spotted onto a p81 filterplate (Whatman) and a vacuum was applied. Wells were washed 3 times with 200 μL of dilute aqueous phosphoric acid before the addition of 50 μL Microscint 40 per well. Incorporation of radioactivity was determined on a Topcount microplate scintillation counter (Packard).
GSK3α (Upstate) was assayed exactly as described above except that 1 ng of enzyme was added per assay point.

The next series addresses T3, DYRK1A (Homo sapiens, UniProt Q13627).
T3 construct: purchased Upstate
The experiment in a line: DYRK1A in vitro kinase assay. The format is biochemical. As to conditions: recombinant human DYRK1A, 100 μM ATP. The text has this:
Dual specificity tyrosine phosphorylation regulated kinase 1A (DYRK1A) has been proposed, amongst other functions, to play a role in the regulation of glycogen metabolism in a way similar to GSK3. Some of the example compounds of the present invention were screened against recombinant human DYRK1A in vitro and the determined IC50 values are shown in Table 9. According to our current knowledge inhibition of DYRK1A will have additional positive effect on stimulation of glycogen synthase.
A 10-point titration was set up to determine the IC50 values of selected example compounds against DYRK1A. Assays were performed using 96-well microtiter plates and a final volume of 25 μL/well. Each assay contained 2.3 milliunits of DYRK1A (Upstate), 50 μM Woodtide peptide ([…], Upstate), 20 mM Tris HCl pH 8.0, 10 mM DTT, 5 mM EGTA, 1 mM NaVO3, 31 mM β-glycerophosphate, 15 mM MgCl2 supplemented with 100 μM ATP and 0.5 μCi of [γ-^32P] ATP plus or minus inhibitor in 2% DMSO. Assays were carried out for 60 minutes at 30° C. before stopping the reaction by the addition of an equal volume of 75 mM aqueous phosphoric acid. Samples were then spotted onto a p81 filterplate (Whatman) and a vacuum applied. Wells were washed 3 times with 200 μL of dilute aqueous phosphoric acid before the addition of 50 μL Microscint 40 per well. Incorporation of radioactivity was determined on a Topcount microplate scintillation counter (Packard).

The nature of series [1]: Oral glucose tolerance in male ZDF fa/fa rats. The format is in vivo, rat. The procedure: (§1) The ability of example compounds of the present invention to improve glucose metabolism was tested in 12-13 week old male ZDF fa/fa rats. The test animals (10-15 mmol/L fasting glucose level) were dosed twice at 30 mg/kg and the glucose challenge was given at time 0. […] Most of these blood levels were below the EC50 values determined in cellular assays.
(§2) 12-13 weeks old male ZDF fa/fa rats were used to study the effect of example compounds on oral glucose tolerance. […] Body weight was recorded three times per week. Test compounds were dissolve in a formulation of 10% DMSO, 5% Tween, 5% Span 20, 30% PEG 400 and 50% water (v/v) to provide final solutions at 5 mg/mL concentration. Each experimental group contained 7 animals. After an 16 h overnight fast the test compounds were administered at 30 mg/kg per os twice (at −270 min and −30 min) before the oral glucose tolerance test was commenced (2 g glucose/kg per os as a 40% solution introduced via feeding tube). A control group was dosed in a similar manner with the vehicle only. Blood sampling for blood glucose measurement (20 μL blood) was performed at −270, 0, 15, 30, 60, 90, 120 and 180 min. Mixed venous blood was collected from the tail vein into 20-μL glass capillaries, which were placed in a standard tube filled with 1 mL solution for hemolysis. Glucose levels were measured using the glucose oxidase procedure (Super G Glukosemessgeraet; Dr Mueller Geraetebau, Freital, Germany). In addition, 50 μL blood samples were taken at 30 and 60 min after the glucose dose, placed in heparinized tubes, which were then frozen immediately in liquid nitrogen. The bioanalytical method used employed isocratic elution liquid chromatography—tandem mass spectrometry in electrospray positive ion multiple reaction monitoring mode.

Series [2] is described as follows: Blood levels of test compounds in ZDF fa/fa rats. Particulars: 30 mg/kg per os twice. In kind it is in vivo, rat. The procedure:
as §1, §2

A further series deals with CDK9/cyclin T1 (Homo sapiens, UniProt P50750). The experiment in a line: Kinase assay CDK9/cyclin T1. The format is biochemical. Particulars: Ki calculated (Cheng-Prusoff) from experimentally determined IC50 and Km,ATP; read-out: Kinase Inhibition Ki CDK9 - cyclin T1. Summed up: (§3)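 Radiometric filter assays used recombinant kinases or complexes (2-4 μg) with appropriate polypeptide substrates in pH 7.4 β-glycerophosphate/MOPS buffer. Reactions were started with 15 mM MgCl2 and 100 μM ATP containing [γ-32P]-ATP and run at 30° C. Phosphate incorporated into substrate was counted by scintillation after washing.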

The next series has as its target CDK7/cyclin H (Homo sapiens, UniProt P50613). Briefly: Kinase assay CDK7/cyclin H. The format is biochemical. As to conditions: Ki calculated (Cheng-Prusoff) from experimentally determined IC50 and Km,ATP; read-out: Kinase Inhibition Ki CDK7 - cyclin H. In a few lines:
as §3

The target of another series is CDK2/cyclin E (Homo sapiens, UniProt P24941). The experiment in a line: Kinase assay CDK2/cyclin E. The format is biochemical. Particulars: Ki calculated (Cheng-Prusoff) from experimentally determined IC50 and Km,ATP; read-out: Kinase Inhibition Ki CDK2 - cyclin E. In a few lines: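 Radiometric assays measured transfer of radioactive phosphate from ATP onto polypeptide substrates, using 2-4 μg recombinant active enzyme in buffer typically containing 25 mM β-glycerophosphate, 20 mM MOPS, 5 mM EGTA, 1 mM DTT and 1 mM Na3VO3 at pH 7.4. Reactions were stopped on ice, filtered on P81 or GF/C plates and washed with orthophosphoric acid. Incorporated radioactivity was scintillation-counted.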

The subject of another series is PEPCK gene expression. The experiment in a line: PEPCK gene expression assay - qPCR in HEPG2 cells. In kind it is cell-based. Particulars: HEPG2; 100 nM + Dex/cAMP. The procedure:
PEPCK gene expression was studied in HEPG2 (hepatocarcinoma) cells, seeded in 6-well plate at […] per well. The cells were serum-starved for 20 hours before treatment with dexamethasone/cAMP (stimulator of PEPCK gene expression) in the presence or absence of insulin or GSK3 inhibitor example compounds. After 3 hours treatment the cells were harvested, lysed and RNA extracted using mini RNeasy spin columns (Quiagen). The primer set COD2063/COD2064 (350 bp) was used for the PEPCK gene. The one step RT-PCR was carried out using the Lightcycler-RNA Master SYBR Green 1 Kit. The qPCR analysis calculates the number of the PCR cycles required for the PCR product amplification to reach logarithmic phase. QPCR for a housekeeping gene—28S—was used for normalisation. PEPCK is a key enzyme in gluconeogenesis in the liver and it is known to be negatively regulated by insulin via inhibition of GSK3. The effect of example compounds on PEPCK gene expression was studied in HEPG2 cells treated with dexamethasone/cAMP (a positive regulator PEPCK gene expression) in the presence or absence of insulin or GSK3 inhibitors. Example compound inhibitors of GSK3 were efficient in the abolishment of dexamethasone/cAMP induced stimulation of PEPCK gene expression in HEPG2 cells.
A general note: Real-time PCR tracks product formation cycle by cycle.

The mark [3] stands for this setting: ZDF fa/fa rats, oral glucose tolerance, 30 mg/kg per os twice (−270 and −30 min).
The mark [4] stands for this setting: male ZDF fa/fa rats, 30 mg/kg per os twice, oral glucose tolerance test.

Marks after values point to notes of the source that are not given here.

The term IC50 denotes the concentration that inhibits the measured activity by half. As usually defined, the Ki is a measure of affinity in units of concentration, obtained from inhibition or displacement.

T2 sequence (P49840 whole entry): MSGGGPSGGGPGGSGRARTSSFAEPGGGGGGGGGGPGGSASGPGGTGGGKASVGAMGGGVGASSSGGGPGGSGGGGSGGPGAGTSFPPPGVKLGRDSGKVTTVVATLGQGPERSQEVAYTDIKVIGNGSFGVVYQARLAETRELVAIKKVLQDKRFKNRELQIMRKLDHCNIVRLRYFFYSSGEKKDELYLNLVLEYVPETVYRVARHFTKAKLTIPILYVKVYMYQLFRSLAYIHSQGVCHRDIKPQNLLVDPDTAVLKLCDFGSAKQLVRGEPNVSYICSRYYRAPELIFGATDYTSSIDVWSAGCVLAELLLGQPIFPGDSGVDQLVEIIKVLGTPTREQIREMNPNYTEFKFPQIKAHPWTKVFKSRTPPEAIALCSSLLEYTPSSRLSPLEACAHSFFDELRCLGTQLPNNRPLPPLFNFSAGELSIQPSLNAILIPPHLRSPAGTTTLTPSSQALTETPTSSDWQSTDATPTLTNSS
T1 sequence (P49841 whole entry): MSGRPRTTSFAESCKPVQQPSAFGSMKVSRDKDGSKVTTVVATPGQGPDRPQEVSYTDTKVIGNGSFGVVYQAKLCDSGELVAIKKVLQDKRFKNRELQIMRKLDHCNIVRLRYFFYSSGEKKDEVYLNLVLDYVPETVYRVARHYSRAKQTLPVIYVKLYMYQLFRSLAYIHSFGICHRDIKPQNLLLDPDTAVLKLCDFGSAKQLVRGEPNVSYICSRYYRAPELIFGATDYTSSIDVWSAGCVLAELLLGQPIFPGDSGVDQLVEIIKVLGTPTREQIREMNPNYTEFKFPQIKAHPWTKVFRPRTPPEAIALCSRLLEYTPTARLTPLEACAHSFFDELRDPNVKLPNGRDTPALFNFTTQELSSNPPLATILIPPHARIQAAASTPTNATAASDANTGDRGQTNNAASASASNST
CDK9/cyclin T1, sequence (P50750 whole entry, species assumed): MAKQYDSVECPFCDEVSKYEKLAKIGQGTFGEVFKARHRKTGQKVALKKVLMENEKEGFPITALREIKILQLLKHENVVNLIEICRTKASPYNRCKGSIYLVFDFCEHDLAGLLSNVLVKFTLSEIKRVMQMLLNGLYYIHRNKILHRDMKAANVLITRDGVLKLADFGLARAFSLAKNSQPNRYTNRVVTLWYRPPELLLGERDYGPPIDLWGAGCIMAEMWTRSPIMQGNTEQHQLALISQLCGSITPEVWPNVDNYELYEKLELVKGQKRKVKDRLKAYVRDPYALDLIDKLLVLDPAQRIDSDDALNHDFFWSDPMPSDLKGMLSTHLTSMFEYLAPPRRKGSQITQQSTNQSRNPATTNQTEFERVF
CDK9/cyclin T1, sequence (O60563 whole entry partner, species assumed): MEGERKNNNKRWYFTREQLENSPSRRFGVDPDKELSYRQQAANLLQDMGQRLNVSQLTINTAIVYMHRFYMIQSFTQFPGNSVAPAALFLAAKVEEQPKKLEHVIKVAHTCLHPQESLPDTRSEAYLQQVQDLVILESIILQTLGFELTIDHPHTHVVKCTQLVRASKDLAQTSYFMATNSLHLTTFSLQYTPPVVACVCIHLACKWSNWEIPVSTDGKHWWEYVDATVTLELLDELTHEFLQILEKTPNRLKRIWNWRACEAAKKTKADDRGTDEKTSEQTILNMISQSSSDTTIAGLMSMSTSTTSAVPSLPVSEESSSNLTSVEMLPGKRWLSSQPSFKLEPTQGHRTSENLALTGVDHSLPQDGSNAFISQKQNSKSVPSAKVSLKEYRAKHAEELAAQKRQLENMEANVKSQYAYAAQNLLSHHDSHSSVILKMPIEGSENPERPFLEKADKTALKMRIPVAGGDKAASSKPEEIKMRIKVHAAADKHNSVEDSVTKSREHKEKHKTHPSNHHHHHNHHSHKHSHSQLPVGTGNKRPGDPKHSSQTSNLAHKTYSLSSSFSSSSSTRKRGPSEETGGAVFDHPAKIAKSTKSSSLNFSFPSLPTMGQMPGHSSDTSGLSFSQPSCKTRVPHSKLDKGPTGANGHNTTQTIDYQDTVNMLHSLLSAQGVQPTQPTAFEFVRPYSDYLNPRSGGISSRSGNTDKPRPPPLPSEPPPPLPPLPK
CDK7/cyclin H, sequence (P50613 whole entry, species assumed): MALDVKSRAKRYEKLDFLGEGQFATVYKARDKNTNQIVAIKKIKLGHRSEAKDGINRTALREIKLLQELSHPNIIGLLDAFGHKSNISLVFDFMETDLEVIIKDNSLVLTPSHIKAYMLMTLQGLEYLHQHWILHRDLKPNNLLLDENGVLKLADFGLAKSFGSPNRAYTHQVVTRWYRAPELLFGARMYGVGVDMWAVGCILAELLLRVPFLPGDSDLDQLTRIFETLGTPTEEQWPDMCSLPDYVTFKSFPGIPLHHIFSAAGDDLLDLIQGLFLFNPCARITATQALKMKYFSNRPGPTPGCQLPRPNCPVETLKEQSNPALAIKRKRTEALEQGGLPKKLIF
CDK7/cyclin H, sequence (P51946 whole entry partner, species assumed): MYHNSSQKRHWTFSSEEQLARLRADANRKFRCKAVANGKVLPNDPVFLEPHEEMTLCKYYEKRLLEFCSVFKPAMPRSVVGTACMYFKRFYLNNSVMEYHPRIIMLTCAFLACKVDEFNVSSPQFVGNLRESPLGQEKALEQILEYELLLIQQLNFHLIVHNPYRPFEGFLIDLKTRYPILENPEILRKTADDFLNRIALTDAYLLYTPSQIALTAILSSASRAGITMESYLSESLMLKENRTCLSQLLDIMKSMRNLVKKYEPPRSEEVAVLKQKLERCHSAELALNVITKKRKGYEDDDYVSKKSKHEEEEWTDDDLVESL

For the compound `Cc1c(-c2ccnc(Nc3cccc(S(=O)(=O)NCc4ccccc4)c3)n2)sc(=O)n1C` [Compound 77, N-Benzyl-3-[4-(3,4-dimethyl-2-oxo-2,3-dihydro-thiazol-5-yl)-pyrimidin-2-ylamino]-benzenesulfonamide], the IC50 was determined as 70.9 nM at GSK3β and 61.5 nM at GSK3α.

For the compound `Cc1c(-c2ccnc(Nc3ccc(C#N)c(C(F)(F)F)c3)n2)sc(=O)n1C` [Compound 70, 4-[4-(3,4-Dimethyl-2-oxo-2,3-dihydro-thiazol-5-yl)-pyrimidin-2-ylamino]-2-trifluoromethyl-benzonitrile], the values for the half-maximal inhibitory concentration (IC50) on GSK3β and at GSK3α were 6.8 nM and 3.6 nM, respectively.

Consider `Cc1c(-c2ccnc(Nc3ccc(Cl)c(C(F)(F)F)c3)n2)sc(=O)n1C` [Compound 66, 5-[2-(4-Chloro-3-trifluoromethyl-phenylamino)-pyrimidin-4-yl]-3,4-dimethyl-3H-thiazol-2-one], for which the IC50 on GSK3β is 15 nM; on DYRK1A, 356 nM; at GSK3α, 32 nM. In addition, the “% Glucose Decrease AUC (−270–180 min)” value in series [1] (setting [3]) was 20%. The “% Glucose decrease-AUC (0–180 min)” value in [1] (setting [3]) was 17* %. For the same compound, the “decreased blood glucose levels” value in [1] (setting [4]) is “statistically significant”. For the same compound, in [1] (setting [4]), the “glucose AUC” value was “moderate decrease”. The “oral bioavailability (blood levels at 30 and 60 min after the glucose load)” value in [2] (male ZDF fa/fa rats) is on record as “some oral bioavailability”. Moreover, the concentration at 30 min in series [2] (male, rat, whole blood, oral, ZDF fa/fa rats, time 30 min) was found to be 157 ng/mL. Besides, in series [2] (male, rat, whole blood, oral, ZDF fa/fa rats, time 60 min), the concentration at 60 min turned out to be 162 ng/mL. In addition, the figures for the Ki on CDK9/cyclin T1, at CDK7/cyclin H and on CDK2/cyclin E were 21 nM, 2300 nM and 200 nM, respectively.

As for Insulin, the “PEPCK gene expression, % of maximum stimulation” value in the series on PEPCK gene expression is 44.09 ± 11.07%.

Source of the values: patent publication US7902361B2, “Pyrimidin-4-yl-3, 4-thione compounds and their use in therapy” (Cyclacel Limited, priority 2003, dated 2011).
